# Columns and labels:
# [1] = tested on: A549 cells; assay: EZH2 inhibition with GSK126 in low glucose, western blot; format: cell-based, human; conditions: GSK126 0.25 μM
# Protocol: (§1) Human lung cancer A549 (CCL-185) and NCI-H358 (CRL-5807) cells lines were purchased from American Type Culture Collection (ATCC, Manassas, VA). Cells were maintained in culture according to manufacturer protocol using Roswell Park Memorial Institute (RPMI) 1640 medium (Corning, Cat. #10-040CV) supplemented with 10% FBS and 5% 1× Pen-Strep and kept in 37° C. and 5% of CO2. Murine 2953A cell line was established in our lab from a KP lung tumor by tissue dissociation. This cell line was maintained in culture in Dulbecco's modified Eagle Medium (DMEM) medium (Corning, Cat. #10-017CV) with 5% FBS and 5% 1× Pen-Strep.
# (§2) All experiments in cell lines were performed in biological triplicate. Cells were seeded at same confluence and grown for 5 days (and for some experiments overnight or up to 9 days or 30 days, as indicated in the figures and text) in different concentration of glucose: high (20 mM), low (1 mM) and for some experiments medium (5 mM), as indicated. We used mediums with glutamine and without glucose: RPMI (Corning Cat. #10-043CV) for A549 and NCI-H358 cells, DMEM (ThermoScientific Cat. #11566025) for 2953A cells, supplemented with 10% FBS, 5% of 1× Pen-Strep and complemented with D-Glucose to the desired final concentration, as indicated in the figures.
# (§3) For total protein extraction, cells were harvested, washed twice with ice-cold PBS-EDTA (0.5 mm EDTA), lysed using RIPA buffer (50 mM Tris-HCl pH 7.6, 150 mM NaCl, 0.1% SDS, 0.5% C24H39NaO4, 1% NP-40, 2 mm EDTA, 50 mm NaF) for 15 min on ice and centrifuged at 13,000 rpm for 30 min at +4° C. The resulting protein extracts were quantified using BCA protein assay followed by analysis by SDS-PAGE and Western blotting.
# (§4) Histones was extracted from A549, NCI-H358 and 2953A cell lines using the Histone extraction kit (Abcam) according to manufacturer instructions.
# (§5) SDS-PAGE and Western blotting analyses were performed using standard protocols. For antibodies information, see Reagents and Tools Table. Western blot images were detected by iBright Imaging Systems (Thermo Fisher Scientific). The protein detected was normalized to Actin or H3 total antibodies, this last in case of histonic extract. Each immunodetection derived from the same membrane was performed with the same exposure times according to the manufacture's antibody guidelines and was cropped only for presentation purposes; this is indicated by a dotted line.
# [2] = tested on: NCI-H358 cells; assay: as above; format: cell-based, human; conditions: GSK126 0.25 μM
# Protocol: as §1, §2, §3, §4, §5
# [3] = tested on: 2953A cells; assay: αKG rescue in low glucose, western blot and RT-PCR; format: cell-based, mouse; conditions: low glucose 5 days
# Protocol: as §1, §2
# (§6) All αKG rescue experiments were conducted using 10 mM alpha-ketoglutarate (α-KG; Sigma) and α-Mannitol (Sigma) as osmotic control.
# as §3, §4, §5
# (§7) Total RNA was extracted from A549, NCI-H358 and 2953A by using TRI Reagent Solution (Applied Biosystem), according to manufacturer instruction. RNA concertation was assayed by Nanodrop 3000 spectrophotometer (Thermo Fisher Scientific). Then, 1 μg of RNA was treated with DNase I (Thermo Fisher Scientific) and used for cDNA preparation.
# (§8) cDNA was prepared using 1 μg of RNA with SuperScript IV Reverse Transcriptase (Invitrogen). SYBR green-based RT-PCR kit (Biorad) was performed using human and mouse primers (See Table EV11). mRNA levels were normalized to GAPDH (ΔCt=Ctgene of interest-Ct GAPDH) and presented as relative mRNA expression (ΔΔCt=2-(ΔCtsample-ΔCtcontrol)). All primers were designed by NCBI Primer-BLAST and purchased from Integrated DNA Technologies.
# [4] = tested on: A549 and NCI-H358 cells; assay: RNA-seq, genes regulated consistently in both cell lines; format: cell-based, human; conditions: significantly regulated in at least 3 of the four conditions
# Protocol: (§9) A549 and NCI-H358 cell lines were incubated in triplicate with high glucose (20 mM), low glucose (1 mM), and low glucose+dm-αKG (10 mM). Total RNA was extracted as previously described. RNA sequencing was performed by Med Genome. Sample quality control was performed using Quibit fluorometric (Agilent) and Tapestation bioanalyzer (Agilent). For library preparation TruSeq Stranded Total RNA kit (Illumina) was used and libraries were sequenced on NovaSeq platform (Illumina). The FASTQ data generated was used for gene expression analysis, performed as described in Nassa et al (Nassa et al, 2019).
# Briefly, the raw sequence files generated (.fastq files) underwent quality control analysis using FASTQC (http://www.bioinformatics.babraham.ac.uk/projects/fastqc/) and adapter sequences were removed using Trimmomatic version 0.38 (Bolger et al, 2014) Filtered reads were aligned on human genome (assembly hg38) considering genes present in GenCode Release 35 (GRCh38.p12) using STAR v2.7.6a (Dobin et al, 2013) with standard parameters. Quantification of expressed genes was performed using featureCounts (Liao et al, 2014) and differentially expressed genes were identified using DESeq2 (Love et al, 2014). A given RNA was considered expressed when detected by at least ≥10 raw reads. […]
# [5] = tested on: A549 cells; assay: αKG rescue in low glucose, western blot and RT-PCR; format: cell-based, human
# Protocol: as §1, §2, §6, §3, §4, §5, §7, §8
# [6] = tested on: NCI-H358 cells; assay: αKG rescue in low glucose, western blot and RT-PCR; format: cell-based, human
# Protocol: as §1, §2, §6, §3, §4, §5, §7, §8
# [7] = tested on: A549 cells; assay: RNA-seq, low glucose with dm-αKG; format: cell-based, human; conditions: A549, low glucose + dm-αKG 10 mM, five days
# Protocol: as §9
# (§10) Briefly, the raw sequence files generated (.fastq files) underwent quality control analysis using FASTQC (http://www.bioinformatics.babraham.ac.uk/projects/fastqc/) and adapter sequences were removed using Trimmomatic version 0.38 (Bolger et al, 2014) Filtered reads were aligned on human genome (assembly hg38) considering genes present in GenCode Release 35 (GRCh38.p12) using STAR v2.7.6a (Dobin et al, 2013) with standard parameters. Quantification of expressed genes was performed using featureCounts (Liao et al, 2014) and differentially expressed genes were identified using DESeq2 (Love et al, 2014). A given RNA was considered expressed when detected by at least ≥10 raw reads.
# (§11) Differential expression was reported as Ifold-changel (FC)[…] along with associated adjusted pvalues≤0.05 computed according to Benjamini-Hochberg. Gene Set Enrichment Analysis (GSEA) was performed to examine pathway enrichment for the differential expressed genes with the Molecular Signature Database “Hallmarks” gene set collection (Liberzon et al, 2015). Only those with an FDR […] have been selected.
# [8] = tested on: NCI-H358 cells; assay: RNA-seq, low glucose with dm-αKG; format: cell-based, human; conditions: NCI-H358, low glucose + dm-αKG 10 mM, five days
# Protocol: as §9, §10, §11
# [9] = tested on: LUAD; conditions: genetically engineered murine models and patient-derived xenografts; cited from earlier work
# [10] = A549, low glucose (1 mM) 5 days
# [11] = A549, low glucose 5 days, dm-αKG
# [12] = A549, low glucose 5 days, dm-αKG 10 mM
# [13] = NCI-H358, low glucose 5 days, dm-αKG
# [14] = NCI-H358, low glucose 5 days, dm-αKG 10 mM
smiles,measurement,setting,value
CC[C@H](C)n1cc(C)c2c(C(=O)NCc3c(C)cc(C)[nH]c3=O)cc(-c3ccc(N4CCNCC4)nc3)cc21 [GSK126],"expression of FoxA2, western blot",[1]; [10],rescued
same,"tri-methylation of H3K27, western blot",[1]; [10],rescued
same,EZH2 activity,"[1]; A549, low glucose",inhibited
same,EZH2 activity,[2],inhibited
same,"expression of FoxA2, western blot",[2],rescued
same,"tri-methylation of H3K27, western blot",[2],rescued
"COC(=O)CCC(=O)C(=O)OC [dm-αKG, dimethyl-αKG]","H3K4 hyper-methylation, western blot on histone extracts",[3]; dm-αKG,reverse
same,"H3K9 hyper-methylation, western blot on histone extracts",[3]; dm-αKG,reverse
same,"H3K27 hyper-methylation, western blot on histone extracts",[3]; dm-αKG,reverse
same,"H3K27 hypo-acetylation, western blot on histone extracts",[3]; dm-αKG,reverse
same,"GLUT1 expression, qPCR",[3]; dm-αKG 10 mM,reduced
same,"low glucose-induced inhibition of FoxA2 mRNA, qPCR",[3]; dm-αKG 10 mM,rescued
same,"low glucose-induced reduction in FOXA2 protein, western blot",[3]; dm-αKG 10 mM,rescued
same,genes down-regulated by low glucose consistently in both cell lines and rescued by dm-αKG,[4],445 genes
same,genes up-regulated by low glucose consistently in both cell lines and rescued by dm-αKG,[4],524 genes
same,"HIF1α and HIF2α protein, western blot, control condition","[5]; A549, cells growing in low glucose (so in the source), dm-αKG",did not have any effect
same,"H3K4 hyper-methylation, western blot on histone extracts",[5]; [11],reverse
same,"H3K9 hyper-methylation, western blot on histone extracts",[5]; [11],reverse
same,"H3K27 hyper-methylation, western blot on histone extracts",[5]; [11],reverse
same,"H3K27 hypo-acetylation, western blot on histone extracts",[5]; [11],reverse
same,"low glucose-induced increase of Slug, western blot",[5]; [11],rescued
same,"low glucose-induced reduction in Snail, western blot",[5]; [11],partially rescued
same,"low glucose-induced reduction in ZEB1, western blot",[5]; [11],partially rescued
same,"low glucose-induced repression of PHD3 expression, RT-PCR",[5]; [11],rescued
same,"low glucose-induced up-regulation of HIF1α mRNA, RT-PCR",[5]; [11],rescued
same,"low glucose-induced up-regulation of HIF1α protein, western blot",[5]; [11],reversed
same,"low glucose-induced up-regulation of HIF2α mRNA, RT-PCR",[5]; [11],rescued
same,"low glucose-induced up-regulation of HIF2α protein, western blot",[5]; [11],reversed
same,"GLUT1 expression, qPCR",[5]; [12],reduced
same,"low glucose-induced inhibition of FoxA2 mRNA, qPCR",[5]; [12],rescued
same,"low glucose-induced reduction in FOXA2 protein, western blot",[5]; [12],rescued
same,"HIF1α and HIF2α protein, western blot, control condition","[6]; NCI-H358, cells growing in low glucose (so in the source), dm-αKG",did not have any effect
same,"H3K4 hyper-methylation, western blot on histone extracts",[6]; [13],reverse
same,"H3K9 hyper-methylation, western blot on histone extracts",[6]; [13],reverse
same,"H3K27 hyper-methylation, western blot on histone extracts",[6]; [13],reverse
same,"H3K27 hypo-acetylation, western blot on histone extracts",[6]; [13],reverse
same,"low glucose-induced increase of Slug, western blot",[6]; [13],rescued
same,"low glucose-induced repression of PHD3 expression, RT-PCR",[6]; [13],rescued
same,"low glucose-induced up-regulation of HIF1α mRNA, RT-PCR",[6]; [13],rescued
same,"low glucose-induced up-regulation of HIF1α protein, western blot",[6]; [13],reversed
same,"low glucose-induced up-regulation of HIF2α mRNA, RT-PCR",[6]; [13],rescued
same,"low glucose-induced up-regulation of HIF2α protein, western blot",[6]; [13],reversed
same,"GLUT1 expression, qPCR",[6]; [14],reduced
same,"low glucose-induced inhibition of FoxA2 mRNA, qPCR",[6]; [14],rescued
same,"low glucose-induced inhibition of TTF-1 mRNA, qPCR",[6]; [14],rescued
same,"low glucose-induced reduction in FOXA2 protein, western blot",[6]; [14],rescued
same,"low glucose-induced reduction in TTF1 protein, western blot",[6]; [14],rescued
same,number of low glucose down-regulated genes rescued by dm-αKG,"[7]; 2,024 genes down-regulated by low glucose","1,431 genes"
same,number of low glucose up-regulated genes rescued by dm-αKG,"[7]; 2,394 genes up-regulated by low glucose","1,634 genes"
same,number of low glucose down-regulated genes rescued by dm-αKG,[8]; 942 genes down-regulated by low glucose,370 genes
same,number of low glucose up-regulated genes rescued by dm-αKG,"[8]; 1,335 genes up-regulated by low glucose",510 genes
Cc1ccc([C@@H]2O[C@H](CO)[C@@H](O)[C@H](O)[C@H]2O)cc1Cc1ccc(-c2ccc(F)cc2)s1 [canagliflozin],development of LUAD,[9],significantly delays
same,survival,[9],prolongs survival
same,tumor growth,[9],reduces tumor growth
